Laboratory results taken from patent US20250163010A1, “PROCESSES FOR THE PREPARATION OF N-(1-METHYLCYCLOPROPYL)-2-(3-PYRIDINYL)-2H-INDAZOLE-4-CARBOXAMIDE AND INTERMEDIATES THEREOF” (FMC CORPORATION, priority 2022, published 2025).

Legend:
[1] = Form A and Form B interconversion (competitive) slurries; format: physicochemical
Procedure: Relative thermodynamic stabilities of anhydrous/non-solvated Forms A and B were studied at 2-8° C., room temperature (RT) and at 71-72° C. via interconversion (competitive) slurries. In these slurries, a given solvent system was pre-saturated with compound 092 (Form A+minor Form B) at the stated temperature, and a portion of the liquid phase was filtered into a mixture of solids containing relatively equal amounts of Form A and Form B. Interconversion slurries at 2-8° C. and RT were allowed to stir for 22 days, while slurries at 71-72° C. stirred for shorter duration (2-4 days). […] The results are reported in table 13 below where: liquid phase for each slurry was pre-saturated using as-received Form A+minor Form B; solvent ratios are v/v; water activity values were calculated using UNIFAC calculator at RT; and times and temperatures are approximate.

[2] = Stable polymorph form screen by slurry experiments; format: physicochemical; conditions: between 2° C. and 73° C.; conclusion from slurries
Procedure: Slurry experiments were conducted to identify the stable form at various conditions. In these experiments, saturated solutions in various solvents containing excess undissolved solids (starting with Form A+minor Form B) were stirred for extended durations. Slurries at room temperature (RT) and 2-8° C. were typically conducted for approximately 2 weeks, while slurries at 72-73° C. were stirred for a shorter duration (1 day) to minimize the potential for decomposition. […] The results are shown in the table 12 where the time and temperatures are approximate.

Row | Final form (XRPD Result) ([1]; competitive slurry in EtOH, 71-72° C., 2 d, relatively equal amounts of Form A and Form B) | Final form (XRPD Result) ([1]; competitive slurry in EtOH, RT, 22 d, relatively equal amounts of Form A and Form B) | Final form (XRPD Result) ([1]; competitive slurry in NMP/water 80:20 (aw 0.39), 2-8° C., 22 d, relatively equal amounts of Form A and Form B) | Final form (XRPD Result) ([1]; competitive slurry in NMP/water 80:20 (aw 0.39), 71-72° C., 2 d, analyzed damp) | Final form (XRPD Result) ([1]; competitive slurry in NMP/water 80:20 (aw 0.39), RT, 22 d, relatively equal amounts of Form A and Form B) | Relative stability of polymorph forms [2] | Relative thermodynamic stability of polymorph forms ([1]; between 2° C. and 72° C., conclusion from competitive slurries) | SMILES
1 | Form A | Form A | Form A | Form A | Form A |  |  | CC1(NC(=O)c2cccc3nn(-c4cccnc4)cc23)CC1 [Form A + Form B, N-(1-methylcyclopropyl)-2-(3-pyridinyl)-2H-indazole 4-carboxamide]
2 |  |  |  |  |  | more stable than Form B | thermodynamically stable form | CC1(NC(=O)c2cccc3nn(-c4cccnc4)cc23)CC1 [Form A, N-(1-methylcyclopropyl)-2-(3-pyridinyl)-2H-indazole 4-carboxamide]
